Data: patent US11285135B2 (AMGEN INC., priority 2016, dated 2022)
Like-named read-outs stand apart in the source and are kept apart here.

Columns and labels:
[1] = molecular target: GDP-bound protein (aa 1-169), containing both G12C and C118A amino acid substitutions (Homo sapiens, UniProt P01116, C118A/G12C); experiment: Coupled Nucleotide Exchange Assay (SOS-mediated nucleotide exchange, AlphaScreen); assay type: biochemical; conditions: 2 hours compound pre-incubation
How it was run: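 His-tagged GDP-bound […] (aa 1-169, G12C/C118A) pre-incubated 2 h with compound titration in 25 mM HEPES pH 7.4, 10 mM MgCl2, 0.01% Triton X-100.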

[2] = tested on: Phosphorylation of ERK½ in MIA PaCa-2 cells; experiment: Phospho-ERK½ MSD Assay in MIA PaCa-2 cells; assay type: cell-based; conditions: 4 hours compound treatment, 10 ng/mL EGF for 10 min, read-out: p-ERK IC50 (MIA PaCa-2)
Experimental: (§1) Phospho-ERK½ MSD Assay: MIA PaCa-2 (ATCC® CRL-1420™) and A549 (ATCC® CCL-185™) cells were cultured in RPMI 1640 Medium (ThermoFisher Scientific 11875093) containing 10% fetal bovine serum (ThermoFisher Scientific 16000044) and 1× penicillin-streptomycin-glutamine (ThermoFisher Scientific 10378016). Sixteen hours prior to compound treatment, MIA PaCa-2 or A549 cells were seeded in 96-well cell culture plates at a density of 25,000 cells/well and incubated at 37° C., 5% CO2. A compound dose-response titration was diluted in growth media, added to appropriate wells of a cell culture plate, and then incubated at 37° C., 5% CO2 for 4 hours. Following compound treatment, cells were stimulated with 10 ng/mL EGF (Roche 11376454001) for 10 min, washed with ice-cold Dulbecco's phosphate-buffered saline, no Ca^2+ or Mg^2+ (ThermoFisher Scientific 14190144), and then lysed in RIPA buffer (50 mM Tris-HCl pH 7.5, 1% Igepal, 0.5% sodium deoxycholate, 150 mM NaCl, and 0.5% sodium dodecyl sulfate) containing protease inhibitors (Roche 4693132001) and phosphatase inhibitors (Roche 4906837001). Cell lysates were stored frozen at −80° C. overnight. Phosphorylation of ERK½ in compound-treated lysates was assayed using Phospho-ERK½ Whole Cell Lysate kits (Meso Scale Discovery K151DWD) according to the manufacturer's protocol. Assay plates were read on a Meso Scale Discovery Sector Imager 6000, and data were analyzed using a 4-parameter logistic model to calculate IC50 values.

[3] = tested on: Phosphorylation of ERK½ in A549 cells; experiment: Phospho-ERK½ MSD Assay in A549 cells; assay type: cell-based; conditions: 4 hours compound treatment, 10 ng/mL EGF for 10 min, read-out: p-ERK IC50 (A549)
Experimental: as §1

[4] = Homo sapiens, MIA PaCa-2, MIA PaCa-2 cells

Chain of GDP-bound protein (aa 1-169), containing both G12C and C118A amino acid substitutions (P01116 1-169 isoform P01116-2 G12C/C118A): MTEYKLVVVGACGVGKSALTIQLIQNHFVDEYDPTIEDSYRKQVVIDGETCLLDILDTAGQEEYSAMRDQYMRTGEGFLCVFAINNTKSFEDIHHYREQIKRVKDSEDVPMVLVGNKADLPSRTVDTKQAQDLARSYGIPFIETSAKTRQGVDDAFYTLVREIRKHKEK

Compound | Coupled exchange IC50 [1] [µM] | IC50 [2, 4] [µM] | IC50 ([3]; Homo sapiens, A549, A549 cells) [µM] | IC50 ([2]; MIA PaCa-2 cells) [µM] | IC50 ([3]; A549 cells) [µM]
C=CC(=O)N1CCN(c2nnc(-c3cccnc3C)c3cc(-c4c(O)cccc4F)c(Cl)cc23)CC1 [Example 10-8] | 1.34 | 12.9 | > 100 |  | 
C=CC(=O)N1CCN(c2snc3cc(-c4cc(OC)cc5ccccc45)c(Cl)cc23)CC1 [Example 1-4, 1-(4-(5-chloro-6-(3-methoxy-1-naphthalenyl)-2,1-benzothiazol-3-yl)-1-piperazinyl)-2-propen-1-one] | >10 | > 100 | > 100 |  | 
C=CC(=O)N1CCN(c2nc(=O)n(-c3ccccc3C(C)C)c3cc(-c4c(C)ccc5[nH]ncc45)c(Cl)cc23)CC1 (single isomer, unassigned) [Example 11-1-1, 6-chloro-7-(5-methyl-1H-indazol-4-yl)-1-(2-(2-propanyl)phenyl)-4-(4-(2-propenoyl)-1-piperazinyl)-2(1H)-quinazolinone] | 0.231 |  | 42.9 | 0.247 | 
C=CC(=O)N1CCN(c2nc(=O)n(-c3ccccc3C(C)C)c3cc(-c4c(O)cccc4F)c(Cl)cc23)[C@@H](C)C1 (single isomer, unassigned) [Example 8-3-1] | 0.282 |  | > 100 | 0.408 | 
C=CC(=O)N1CCN(c2nc(=O)n(-c3cnccc3C3CC3)c3cc(-c4c(O)cccc4F)c(Cl)cc23)CC1 [Example 8-5, 6-chloro-1-(4-cyclopropyl-3-pyridinyl)-7-(2 fluoro-6-hydroxyphenyl)-4-(4-(2-propenoyl)-1-piperazinyl)-2(1H)-quinazolinone] | 0.400 | 2.41 | > 100 |  | 
C=CC(=O)N1CCN(c2snc3c(F)c(-c4cc(O)cc5ccccc45)c(Cl)cc23)C[C@@H]1CO (racemic) [Example 1-16, 1-(4-(5-chloro-7-fluoro-6-(3-hydroxy-1-naphthalenyl)-2,1-benzothiazol-3-yl)-2-(hydroxmethyl)-1-piperazinyl)-2-propen-1-one] | 0.492 | 4.83 | > 100 |  | 
C=CC(=O)N1CCN(c2snc3c(F)c(-c4cc(O)cc(F)c4F)c(Cl)cc23)CC1 [Example 3-16, 1-(4-(5-chloro-6-(2,3-difluoro-5-hydroxyphenyl)-7-fluoro-2,1-benzothiazol-3-yl)-1-piperazinyl)-2-propen-1-one] | 2.60 | 21.3 | > 100 |  | 
C=CC(=O)N1CCN(c2nc(=O)n(-c3ccccc3C(C)C)c3cc(-c4c(O)cccc4F)c(Cl)cc23)CC1 (single isomer, unassigned) [Example 8-1-2, 6-Chloro-7-(2-fluoro-6-hydroxyphenyl)-1-(2-(2-propanyl)phenyl)-4-(4-(2-propenoyl)-1-piperazinyl)-2(1H)-quinazolinone] | 0.322 |  |  | 0.811 | > 100
C=CC(=O)N1CCN(c2snc3c(F)c(-c4cc(N)nc5ccccc45)c(Cl)cc23)CC1 [Example 26, 1-(4-(6-(2-amino-4-quinolinyl)-5-chloro-7-fluoro-2,1-benzothiazol-3-yl)-1-piperazinyl)-2-propen-1-one] | 3.90 | 30.3 | > 100 |  | 
C=CC(=O)N1CCN(c2snc3c(F)c(-c4cc(O)cc5ccccc45)c(Cl)cc23)[C@H](C)C1 [Example 1-21, 1-((3R)-4-(5-chloro-7-fluoro-6-(3-hydroxy-1-naphthalenyl)-2,1-benzothiazol-3-yl)-3-methyl-1-piperazinyl)-2-propen-1-one] | 1.30 | 4.89 | > 100 |  | 
C=CC(=O)N1CCN(c2snc3c(F)c(-c4nc(N)cc5ccccc45)c(Cl)cc23)CC1 [Example 25, 1-(4-(6-(3-Amino-1-isoquinolinyl)-5-chloro-7-fluoro-2,1-benzothiazol-3-yl)-1-piperazinyl)-2-propen-1-one] | 0.251 | 0.786 | > 100 |  | 
C=CC(=O)N1CCN(c2nc(=O)n(-c3ccccc3C(C)C)c3cc(-c4ccccc4Cl)c(Cl)cc23)[C@@H](C)C1 [Example 9-11, 6-chloro-7-(2-chlorophenyl)-4-((2S)-2-methyl-4-(2-propenoyl)-1-piperazinyl)-1-(2-(2-propanyl)phenyl)-2(1H)-quinazolinone] | 0.093 | 0.147 | 64 |  | 
